Laboratory results reported in US20060178342A1, “Hyaluronan as a cytotoxic agent, drug pre-sensitizer and chemo-sensitizer in the treatment of disease” (priority 2001, published 2006).

What was measured:
[1] = system: LIM 1215; test: Effect of HA on cell proliferation; type: cell-based, human; conditions: 3 days constant exposure, 100 nM
Protocol: (§1) The effect of HA on the proliferation of human breast and colon cancer cell lines was determined according to the methods set forth in the Table 11.

[2] = system: MDA MB 231; test: Effect of HA on cell proliferation; type: cell-based, human
Protocol: as §1

[3] = system: MDA MB 435; test: Effect of HA on cell proliferation; type: cell-based, human
Protocol: as §1

[4] = system: MDA MB 468; test: Effect of HA on cell proliferation; type: cell-based, human
Protocol: as §1

[5] = system: ZR-75-1; test: Effect of HA on cell proliferation; type: cell-based, human; conditions: 3 days constant exposure
Protocol: as §1

[6] = system: SK-CO-1; test: Effect of HA on cell proliferation; type: cell-based, human; conditions: 3 days constant exposure, 100 nM
Protocol: as §1

[7] = system: HT-29; test: Effect of HA on cell proliferation; type: cell-based, human; conditions: 3 days constant exposure, 100 nM
Protocol: as §1

[8] = system: LIM 2099; test: Effect of HA on cell proliferation; type: cell-based, human; conditions: 3 days constant exposure, 100 nM
Protocol: as §1

[9] = system: SW620; test: Effect of HA on cell proliferation; type: cell-based, human; conditions: 3 days constant exposure, 100 nM
Protocol: as §1

[10] = system: SW1222; test: Effect of HA on cell proliferation; type: cell-based, human; conditions: 3 days constant exposure, 100 nM
Protocol: as §1

[11] = system: HCT-116; test: Effect of HA on cell proliferation; type: cell-based, human; conditions: 3 days constant exposure, 100 nM
Protocol: as §1

[12] = 6-week study: treatment toxicity (body mass, blood, organ mass, survival)
Text: Animals were monitored daily for GI tract upset such as diarrhea and weekly for more severe toxicity manifestations such as weight loss.
As one of the major toxicities associated with 5-FU treatment is depression of the bone marrow and subsequent drop in white blood cells it was necessary to assess any treatment associated blood toxicity. Upon anaesthetizing the animals, blood was collected from the heart or great vessels using a needle and syringe. Estimation of white blood cell number by making a 1/50 dilution of blood in mouse tenacity saline (M) and counting it on a haemocytometer. A differential blood count was performed by counting-neutrophils, lymphocytes, and erythrocytes. The total estimation of blood cell sub-populations was compared to published data for mouse blood.
The mass of each organ was calculated as a % of the overall net body weight, and compared to the organ masses of the saline only group (Group 1).

[13] = system: MDA-MB-468; test: Breast cancer cell count assay (Coulter counter), HA ± adriamycin; type: cell-based, human
Protocol: (§2) Cell lines MDA-MB-468, MDA-MB-435 and MDA-MB-231 were routinely grown and subcultured as a monolayer in 175 cm^2 culture flasks in Leibovitz L-15 Medium supplemented with 10% Foetal calf serum (FCS) and antibiotic/antimycotic reagents at 37° C. in humidity controlled incubator with 100% (v/v) air.
(§3) For the tests, MDA MB-468, MDA MB-231 and MDA MB-435 cell line were grown in 90% Leibovitz L-15 medium supplemented with 10% FCS. When confluent the cultures were washed 1× in HBSS and trypsinised in 0.25% trypsin/0.05% EDTA. The cell suspensions were counted with an automated cell counter (ZM-2 Coulter Counter) by adding 15 mL saline+0.2 ml of cell suspension. • Cells were resuspended to a number of:
(§4) The cells were plated into 48-well plates (1 cm^2 surface area) by adding 1 ml of cell suspension per well. • Cells were allowed to attach for 24 h, before the media was removed, monolayers washed. The test media was; growth media containing 0-1 μM adriamycin or 5-fluorouracil with or without the addition of 0-1 μM of HA (modal Mw 750,000).
(§5) The cells were exposed to the several combinations of HA and drugs for different times and at different concentrations (Table 3).
(§6) After the incubation and growth periods the cell monolayers were washed with HBSS and trypsinised in 0.25% trypsin/0.05% EDTA. The cell suspensions were counted with an automated cell counter (ZM-2 Coulter Counter) by adding 15 mL saline+0.2 ml of cell suspension. Results were expressed as % of no drug control which was calculated as: […]

[14] = system: MDA-MB-231; test: as above; type: cell-based, human
Protocol: as §2, §3, §4, §5, §6

[15] = system: MDA-MB-435; test: as above; type: cell-based, human
Protocol: as §2, §3, §4, §5, §6

[16] = 30 min HA followed by growth for 3 days, 100 nM
[17] = 3 days constant exposure, 100 nM
[18] = 3 days constant exposure, 500 nM
[19] = 3 days constant exposure, 10 μM
[20] = 24 H HA followed by growth for 3 days, 100 nM

Substance: hyaluronan [HA]
- Effect of HA on cell proliferation (mean ± standard deviation) [1]: 89 ± 5 (n = 8) % of untreated control
- Effect of HA on cell proliferation (mean ± standard deviation) [2, 16]: 86 ± 3 (n = 8) % of untreated control
- Effect of HA on cell proliferation (mean ± standard deviation) [2, 17]: 106 ± 11 (n = 20) % of untreated control
- Effect of HA on cell proliferation (mean ± standard deviation) [2, 18]: 100 ± 1 (n = 8) % of untreated control
- Effect of HA on cell proliferation (mean ± standard deviation) [2, 19]: 101 ± 5 (n = 8) % of untreated control
- Effect of HA on cell proliferation (mean ± standard deviation) [3, 20]: 111 ± 6 (n = 8) % of untreated control
- Effect of HA on cell proliferation (mean ± standard deviation) [3, 16]: 86 ± 6 (n = 12) % of untreated control
- Effect of HA on cell proliferation (mean ± standard deviation) [3, 17]: 85 ± 17 (n = 16) % of untreated control
- Effect of HA on cell proliferation (mean ± standard deviation) [3, 18]: 55 ± 6 (n = 8) % of untreated control
- Effect of HA on cell proliferation (mean ± standard deviation) [3, 19]: 101 ± 1(n = 8) % of untreated control
- Effect of HA on cell proliferation (mean ± standard deviation) [4, 20]: 84 ± 1 (n = 4) % of untreated control
- Effect of HA on cell proliferation (mean ± standard deviation) [4, 16]: 97 ± 15 (n = 12) % of untreated control
- Effect of HA on cell proliferation (mean ± standard deviation) [4, 17]: 99 ± 6 (n = 20) % of untreated control
- Effect of HA on cell proliferation (mean ± standard deviation) [4, 18]: 95 ± 3 (n = 8) % of untreated control
- Effect of HA on cell proliferation (mean ± standard deviation) [4, 19]: 99 ± 6 (n = 20) % of untreated control
- Effect of HA on cell proliferation (mean ± standard deviation) ([5]; 100 nM): 103 ± 4 (n = 20) % of untreated control
- Effect of HA on cell proliferation (mean ± standard deviation) ([5]; 500 nM): 102 ± 1 (n = 8) % of untreated control
- Effect of HA on cell proliferation (mean ± standard deviation) ([5]; 10 μM): 100 ± 3 (n = 8) % of untreated control
- Effect of HA on cell proliferation (mean ± standard deviation) [6]: 95 ± 3 (n = 8) % of untreated control
- Effect of HA on cell proliferation (mean ± standard deviation) [7]: 82 ± 14 (n = 8) % of untreated control
- Effect of HA on cell proliferation (mean ± standard deviation) [8]: 105 ± 2 (n = 16) % of untreated control
- Effect of HA on cell proliferation (mean ± standard deviation) [9]: 97 ± 1 (n = 8) % of untreated control
- Effect of HA on cell proliferation (mean ± standard deviation) [10]: 99 ± 1 (n = 8) % of untreated control
- Effect of HA on cell proliferation (mean ± standard deviation) [11]: 92 ± 0 (n = 8) % of untreated control
- organ mass toxicity [12]: did not result in any dramatic toxicity
- body mass / well being versus 5-FU treatment group ([12]; HA as sole agent or chemosensitizer): did not loose weight, but maintained its body mass
- Cytotoxic effect of HA, change in cell number ([13]; HA exposure 30 min 100 nM): −5%
- Cytotoxic effect of HA, change in cell number ([13]; HA exposure 30 min 500 nM): −22%
- Cytotoxic effect of HA, change in cell number ([13]; HA exposure 30 min 1000 nM): +2%
- Cytotoxic effect of HA, change in cell number ([13]; HA exposure 1 h 100 nM): +3%
- Cytotoxic effect of HA, change in cell number ([13]; HA exposure 24 h 100 nM): −5%
- Cytotoxic effect of HA, change in cell number ([13]; HA exposure 3 days 100 nM): −29%
- Cytotoxic effect of HA, change in cell number ([14]; HA exposure 30 min 100 nM): −27%
- Cytotoxic effect of HA, change in cell number ([14]; HA exposure 30 min 1000 nM): −26%
- Cytotoxic effect of HA, change in cell number ([14]; HA exposure 1 h 100 nM): −21%
- Cytotoxic effect of HA, change in cell number ([14]; HA exposure 24 h 100 nM): −8%
- Cytotoxic effect of HA, change in cell number ([14]; HA exposure 3 days 100 nM): −23%
- Cytotoxic effect of HA, change in cell number ([15]; HA exposure 30 min 100 nM): −12%
- Cytotoxic effect of HA, change in cell number ([15]; HA exposure 30 min 500 nM): 0
- Cytotoxic effect of HA, change in cell number ([15]; HA exposure 1 h 100 nM): −4%
- Cytotoxic effect of HA, change in cell number ([15]; HA exposure 24 h 100 nM): −12%
- Cytotoxic effect of HA, change in cell number ([15]; HA exposure 3 days 100 nM): −22%
